Here are results for four compounds from patent US10906878B2, “Kinase inhibitors for the treatment of disease” (Dana-Farber Cancer Institute, Inc., priority 2013, dated 2021).

Data set [1] deals with KIF5B/Ret_V804M. Kind of data set: Ba/F3 cell growth inhibition (MTS assay), KIF5B/Ret_V804M. The data set is classed as cell-based. The procedure:
(§1) Growth and inhibition of growth was assessed by MTS assay. This assay, a colorimetric method for determining the number of viable cells, is based on the bioreduction of 3-(4,5-dimethylthiazol-2-yl)-5-(3-carboxymethoxyphenyl)-2-(4-sulfophenyl)-2H-tetrazolium (MTS) by cells to a formazan product that is soluble in cell culture medium, can be detected spectrophotometrically and was performed according to the manufacturer's recommended conditions. Ba/F3 cells were exposed to treatment for 72 hours and the number of cells used per experiment determined empirically to assure linear growth kinetics over that time period. All experimental points were set up in six to twelve wells and all experiments were repeated at least three times. […] The curves were fitted using a non-linear regression model with a sigmoidal dose response.
On the technique in general: Formazan colour is commonly taken as a measure of viable cells.

The target in data set [2] is EGFR L858R/T790M Ba/F3 cells (Homo sapiens (Human), UniProt P00533, L858R/T790M). Kind of data set: Ba/F3 cell growth inhibition (MTS assay), EGFR L858R/T790M. The data set is classed as cell-based. The following applies: Assay 1; L858R/T790M; read-out: EGFR Ba/F3 cells IC 50 (nM) Assay 1 L858R/T790M.
Source text: (§2) The specific cDNAs encoding the oncogenic alterations (EGFR: Del 19, L858R, L718Q, L844V, Del/T790M, L858R/T790M, Del 19/L718Q, Del 19/L844V, Del 19/T790M/L718Q and L858R/T790M/L718Q; FGFR: TEL-FGFR1, TEL-FGFR2, TEL-FGFR1 V561M, TEL-FGFR2 V561M; ALK: EML4-ALK; ROS1: CD74-ROS1) were cloned into the pDNA-Dual (BD Biosciences) vector using standard molecular biology techniques. Mutations were introduced using site-directed mutagenesis (Agilent) with mutant specific primers according to the manufacturer's instructions. All constructs were confirmed by DNA sequencing. The constructs were introduced into Ba/F3 cells using retroviral infection. Polyclonal cell lines were established by puromycin selection and subsequently cultured in the absence of interleukin-3 (IL-3). Uninfected Ba/F3 cells or cell lines expressing green fluorescent protein (GFP) were used as controls.
as §1

The target of data set [3] is EGFR Del/T790M Ba/F3 cells (Homo sapiens, UniProt P00533, T790M, cells depend on it, form not given). Kind of data set: Ba/F3 cell growth inhibition (MTS assay), EGFR Del/T790M. The following applies: for EGFR activity (% Control, 1.0 μM drug) Assay 1 Del/T790M / IC50: Assay 1; for IC50: Del/T790M, read-out: EGFR Ba/F3 cells IC 50 (nM) Assay 1 Del/T790M. The data set is classed as cell-based.
Source text: as §2, §1

Data set [4] has as its target EGFR L858R/T790M/L718Q Ba/F3 cells (Homo sapiens (Human), UniProt P00533, L718Q/L858R/T790M). Put plainly: Ba/F3 cell growth inhibition (MTS assay), EGFR L858R/T790M/L718Q. Type of data set: cell-based.
Source text: as §2, §1

For data set [5], the target named is EGFR Del/T790M/L718Q Ba/F3 cells (Homo sapiens, UniProt P00533, L718Q/T790M, cells depend on it, form not given). The data set is classed as cell-based.
Source text: as §2, §1

Data set [6] has as its target EGFR L718Q/L858R Ba/F3 cells (Homo sapiens (Human), UniProt P00533, L718Q/L858R). Put plainly: Ba/F3 cell growth inhibition (MTS assay), EGFR L858R/L718Q. Type of data set: cell-based. The following applies: L718Q/L858R.
For data set [7], the target named is EGFR Del Ba/F3 cells (Homo sapiens, UniProt P00533, cells depend on it, form not given). Kind of data set: Ba/F3 cell growth inhibition (MTS assay), EGFR Del. The data set is classed as cell-based. The following applies: for EGFR activity (% Control, 1.0 μM drug) Assay 1 Del / IC50: Assay 1; for IC50: Del, read-out: EGFR Ba/F3 cells IC 50 (nM) Assay 1 Del.
Source text: as §2, §1

Data set [8] deals with EGFR L858R Ba/F3 cells (Homo sapiens (Human), UniProt P00533, L858R). Put plainly: Ba/F3 cell growth inhibition (MTS assay), EGFR L858R. Type of data set: cell-based. The following applies: for EGFR activity (% Control, 1.0 μM drug) Assay 1 L858R / IC50: Assay 1; for IC50: L858R, read-out: EGFR Ba/F3 cells IC 50 (nM) Assay 1 L858R.
Source text: as §2, §1

In data set [9] the target is EGFR Wild type vIII Ba/F3 cells (Homo sapiens (Human), UniProt P00533, DELINS30-297G). Kind of data set: Ba/F3 cell growth inhibition (MTS assay), EGFR Wild type vIII. The data set is classed as cell-based.
The nature of data set [10]: Microsome Stability Mouse. The data set is classed as in vitro ADME. The following applies: mouse microsomes.
Data set [11] addresses BTK (Homo sapiens (Human), UniProt Q06187). Kind of data set: BTK kinase assay (LanthaScreen Kinase assay). Type of data set: biochemical. The procedure:
BTK kinase assay was conducted using LanthaScreen® Kinase assay.
1. Optimization of kinase concentration required to determine ATP Km,app. The assay was first performed at a high concentration of ATP (1 mM) against a dilution series of kinase in order to determine the amount of kinase required to elicit an approximately 80% change between the minimum and maximum TR-FRET emission ratios (the EC80 value).
2. Determination of ATP Km,app. Using the concentration of enzyme determined in step 1, the assay was then performed against a dilution series of ATP in order to determine the amount of ATP required to elicit a 50% change between the minimum and maximum TR-FRET emission ratios (the EC50 value). This concentration of ATP was referred to as the “apparent” Km value for ATP, or the ATP Km,app.
3. Optimization of kinase concentration required for assay at ATP Km,app. Using the ATP Km,app concentration of ATP determined in step 2, the kinase titration was repeated in order to determine the concentration of kinase required to elicit an approximately 80% change between the minimum and maximum TR-FRET emission ratios at the ATP Km,app concentration of ATP (the EC80 value). This was the concentration of kinase that will be used in an assay to determine an IC50 value for a compound of the invention.
Using the ATP and kinase concentrations determined above, the reaction was then performed in the presence of a dilution series of various compounds of the invention, and the amount of compounds required to elicit a 50% change in TR-FRET ratio (the IC50) was determined. The experiments can be performed over two days, with steps one and two being performed on the first day, and step three and the inhibitor IC50 determination(s) being performed on the second day.
On the technique in general: TR-FRET usually uses a lanthanide donor and a delayed reading to cut background.

[12] abbreviates: Assay 1; T/L/L718Q; read-out: EGFR Ba/F3 cells IC 50 (nM) Assay 1 T/L/L718Q.
The mark [13] stands for this setting: Assay 1, read-out: EGFR Ba/F3 cells IC 50 (nM) Assay 1 Wild type vIII.

“And” between values parts separate entries of the source, which are not always exact repeats. Equal values may be shown once. Read-outs that look alike come from different tables or passages of the source.

Sequence of BTK (Q06187 whole entry): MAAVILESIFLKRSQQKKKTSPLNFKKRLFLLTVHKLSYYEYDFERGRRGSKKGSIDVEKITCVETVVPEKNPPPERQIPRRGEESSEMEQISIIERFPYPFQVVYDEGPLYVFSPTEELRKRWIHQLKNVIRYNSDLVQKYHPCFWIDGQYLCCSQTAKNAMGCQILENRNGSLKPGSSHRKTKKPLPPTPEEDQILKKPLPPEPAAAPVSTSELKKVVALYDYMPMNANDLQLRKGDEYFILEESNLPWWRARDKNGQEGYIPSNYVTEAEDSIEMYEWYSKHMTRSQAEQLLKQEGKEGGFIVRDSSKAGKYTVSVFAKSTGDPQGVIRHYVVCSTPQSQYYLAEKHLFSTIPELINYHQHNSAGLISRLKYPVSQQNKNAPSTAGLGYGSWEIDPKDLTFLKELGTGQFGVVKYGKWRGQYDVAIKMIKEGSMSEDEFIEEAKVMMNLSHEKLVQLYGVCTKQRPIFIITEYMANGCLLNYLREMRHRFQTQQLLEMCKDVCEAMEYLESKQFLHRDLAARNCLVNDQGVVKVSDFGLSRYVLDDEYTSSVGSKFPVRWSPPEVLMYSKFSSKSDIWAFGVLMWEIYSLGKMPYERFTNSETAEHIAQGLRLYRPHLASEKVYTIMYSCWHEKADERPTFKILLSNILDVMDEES

As to `C=CC(=O)Nc1cccc(N(C(=O)Nc2ccccc2)c2cc(Nc3ccc(N4CCN(C)CC4)cc3OC)ncn2)c1` [Compound 1A, N-(3-(1-(6-((2-methoxy-4-(4-methylpiperazin-1-yl)phenyl)amino)pyrimidin-4-yl)-3-phenylureido)phenyl)acrylamide], the “EGFR activity (% Control, 1.0 μM drug) Assay 1 KIF5B/Ret_V804M” value in data set [1] was 65 % Control. In addition, the IC50 in data set [2] came out at 3.1 nM; in data set [3], 19 nM; in [4] (setting [12]), 178 nM; in data set [6] (Assay 1, read-out: EGFR Ba/F3 cells IC 50 (nM) Assay 1 L718Q/L858R), 49.8 nM; in data set [6] (Assay 2, read-out: EGFR Ba/F3 cells IC 50 (nM) Assay 2 L718Q/L858R) it was 149 nM; in [7], 6.33 nM. The results for the IC50 in [8] and in [9] (setting [13]) were 1.56 nM and 16.4 nM, respectively. Besides, the “EGFR activity (% Control, 1.0 μM drug) Assay 1 Del/T790M” value in [3] came out at 3 % Control. For the same compound, the “EGFR activity (% Control, 1.0 μM drug) Assay 2 Del/T790M” value in [3] is given as 1 % Control. Further, in [5] (Assay 1), the “EGFR activity (% Control, 1.0 μM drug) Assay 1 Del/T790M/L718Q” value is 63 % Control. Further, the “EGFR activity (% Control, 1.0 μM drug) Assay 2 Del/T790M/L718Q” value in data set [5] is listed as 83 % Control. Besides, the “EGFR Ba/F3 cells Assay 1 Del/T/L718Q % inhibition 1.0 uM” value in [5] (Assay 1, Del/T/L718Q, 1.0 uM) is recorded as 47%. In addition, in [7], the “EGFR activity (% Control, 1.0 μM drug) Assay 1 Del” value is 4 % Control. In addition, the “EGFR activity (% Control, 1.0 μM drug) Assay 2 Del” value in data set [7] amounted to 0 % Control. In addition, the “EGFR activity (% Control, 1.0 μM drug) Assay 1 L858R” value in data set [8] was determined as 2 % Control. The “EGFR activity (% Control, 1.0 μM drug) Assay 2 L858R” value in data set [8] is listed as 5 % Control. Also, in data set [10], the “Microsome Stability Mouse min” value was found to be 14 min.
With `C=CC(=O)Nc1cccc(N(C(=O)OCc2ccccc2)c2ccnc3[nH]ccc23)c1` [Compound 103A], in [11], the IC50 was found to be 2240 nM.
For the compound `C=CC(=O)Nc1cccc(N(C(=O)NCc2cccs2)c2cc(Nc3ccc(N4CCOCC4)cc3OC)ncn2)c1` [Compound 55A], the IC50 in data set [2] was 2.4 nM; in [3] it was 15.9 nM; in data set [4] (setting [12]), 657 nM; in data set [7] it was 2 nM; in data set [8], 0.5 nM; in data set [9] (setting [13]), 2.3 nM. Also, the “Microsome Stability Mouse min” value in data set [10] turned out to be 1.8 min.
Take `C=CC(=O)Nc1cccc(N(C(=O)Oc2ccccc2)c2ccnc(Nc3ccc(N4CCN(C)CC4)cc3OC)n2)c1` [Compound 10A]: the “KIF5B/Ret_V804M Ba/F3 cell growth (% control, 1.0 μM drug)” value in data set [1] (Assay 1) is 91 % Control. For the same compound, the IC50 was 14.8 nM in data set [2]; 22.9 nM in data set [3]; 270 nM in data set [4] (read-out: EGFR Ba/F3 cells IC 50 (nM) Assay 1 T/L/L718Q; Assay 1; T/L/L718Q); > 1000 nM and 1000 nM in data set [5] (read-out: EGFR Ba/F3 cells IC 50 Assay 1 Del/T/L718Q, Assay 1, Del/T/L718Q); 146 nM in [6] (read-out: EGFR Ba/F3 cells IC 50 (nM) Assay 1 L718Q/L858R, Assay 1); 204 nM in data set [6] (read-out: EGFR Ba/F3 cells IC 50 (nM) Assay 2 L718Q/L858R, Assay 2). Besides, the results for the IC50 in [7], in data set [8] and in data set [9] (read-out: EGFR Ba/F3 cells IC 50 (nM) Assay 1 Wild type vIII) were 4.64 nM, 1.52 nM and 28.1 nM, respectively. In addition, the “EGFR activity (% Control, 1.0 μM drug) Assay 1 Del/T790M” value in [3] came to 2 % Control. In [3], the “EGFR activity (% Control, 1.0 μM drug) Assay 2 Del/T790M” value stood at 2 % Control. In addition, the “EGFR activity (% Control, 1.0 μM drug) Assay 1 Del/T790M/L718Q” value in data set [5] (Assay 1) came to 76 % Control. Besides, in [5], the “EGFR activity (% Control, 1.0 μM drug) Assay 2 Del/T790M/L718Q” value was determined as 84 % Control. In addition, in data set [7], the “EGFR activity (% Control, 1.0 μM drug) Assay 1 Del” value is recorded as 4 % Control. Moreover, the “EGFR activity (% Control, 1.0 μM drug) Assay 2 Del” value in data set [7] was 1 % Control. Moreover, in data set [8], the “EGFR activity (% Control, 1.0 μM drug) Assay 1 L858R” value was 4 % Control. In addition, the “EGFR activity (% Control, 1.0 μM drug) Assay 2 L858R” value in [8] worked out at 3 % Control. Further, the “Microsome Stability Mouse min” value in data set [10] amounted to 18.5 min.
